In ChEMBL document CHEMBL1201862, “PubChem BioAssay data set” (2004):
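Interpolation was linear, between the two tested concentrations surrounding the appropriate level; five concentrations were tested over 48 hours in 96-well plates. Abbreviation: GI50, concentration required for 50% inhibition of growth.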 Activity calls are given as the source filed them. No stated cut-off is given here; in the data, active = GI50 up to about 1.1 µM and inactive = higher.

How the values were obtained:
Assay in all cases: NCI-60 cell line screen, 48 h
786-0 = test system: 786-0
A498 = test system: A498
A549 = test system: A549
ACHN = test system: ACHN
BT-549 = test system: BT-549
CAKI-1 = test system: CAKI-1
CCRF-CEM = test system: CCRF-CEM
COLO 205 = test system: COLO 205
DU-145 = test system: DU-145
EKVX = test system: EKVX
HCC 2998 = test system: HCC 2998
HCT-116 = test system: HCT-116
HCT-15 = test system: HCT-15
HL-60 = test system: HL-60
HOP-62 = test system: HOP-62
HOP-92 = test system: HOP-92
HT-29 = test system: HT-29
Hs-578T = test system: Hs-578T
IGROV-1 = test system: IGROV-1
K562 = test system: K562
KM12 = test system: KM12
LOX IMVI = test system: LOX IMVI
M14 = test system: M14
MCF7 = test system: MCF7
MDA-MB-231 = test system: MDA-MB-231
MDA-MB-435 = test system: MDA-MB-435
MDA-N = test system: MDA-N
MOLT-4 = test system: MOLT-4
Malme-3M = test system: Malme-3M
NCI-H226 = test system: NCI-H226
NCI-H23 = test system: NCI-H23
NCI-H460 = test system: NCI-H460
NCI-H522 = test system: NCI-H522
NCI/ADR-RES = test system: NCI/ADR-RES
OVCAR-3 = test system: OVCAR-3
OVCAR-4 = test system: OVCAR-4
OVCAR-5 = test system: OVCAR-5
OVCAR-8 = test system: OVCAR-8
PC-3 = test system: PC-3
RPMI-8226 = test system: RPMI-8226
RXF 393 = test system: RXF 393
SF-268 = test system: SF-268
SF-295 = test system: SF-295
SF-539 = test system: SF-539
SK-MEL-28 = test system: SK-MEL-28
SK-MEL-2 = test system: SK-MEL-2
SK-MEL-5 = test system: SK-MEL-5
SK-OV-3 = test system: SK-OV-3
SN12C = test system: SN12C
SNB-19 = test system: SNB-19
SNB-75 = test system: SNB-75
SR = test system: SR
SW-620 = test system: SW-620
T47D = test system: T47D
TK-10 = test system: TK-10
U-251 = test system: U-251
UACC-257 = test system: UACC-257
UACC-62 = test system: UACC-62
UO-31 = test system: UO-31

For `O=C1C(S(=O)(=O)c2ccccc2)=C(CS(=O)(=O)c2ccccc2)[C@@H](OCc2ccccc2)[C@@H]1OCc1ccccc1`, the GI50 (786-0) was 26.4 µM (inactive), the GI50 (A498) was 23.3 µM (inactive) and the GI50 (A549) was 27.7 µM (inactive). For the same compound, the GI50 (ACHN) was 31.8 µM (inactive), the GI50 (BT-549) was 13.5 µM (inactive) and the GI50 (CAKI-1) was 30.1 µM (inactive). The GI50 (CCRF-CEM) was 14 µM (inactive), the GI50 (COLO 205) was 25.8 µM (inactive) and the GI50 (DU-145) was 35.2 µM (inactive). For the same compound, the GI50 (EKVX) was 27.2 µM (inactive), the GI50 (HCC 2998) was 18.9 µM (inactive) and the GI50 (HCT-116) was 13.6 µM (inactive). The GI50 (HCT-15) was 18.2 µM, the GI50 (HL-60) was 17.1 µM (inactive) and the GI50 (HOP-62) was 19 µM (inactive). The GI50 (HOP-92) was 12.4 µM (inactive), the GI50 (HT-29) was 13.5 µM (inactive) and the GI50 (Hs-578T) was 23 µM (inactive). The GI50 (IGROV-1) was 17.1 µM (inactive), the GI50 (K562) was 14.4 µM (inactive) and the GI50 (KM12) was 0.0519 µM (active). The GI50 (LOX IMVI) was 15.8 µM (inactive), the GI50 (M14) was 15.7 µM (inactive) and the GI50 (MCF7) was 27.4 µM (inactive). For the same compound, the GI50 (MDA-MB-231) was 23.9 µM (inactive), the GI50 (MDA-MB-435) was 26.9 µM (inactive) and the GI50 (MDA-N) was 23 µM (inactive). For the same compound, the GI50 (MOLT-4) was 16.9 µM (inactive), the GI50 (Malme-3M) was 17.6 µM (inactive) and the GI50 (NCI-H226) was 17.6 µM (inactive). The GI50 (NCI-H23) was 16.9 µM (inactive), the GI50 (NCI-H460) was 21 µM (inactive) and the GI50 (NCI-H522) was 16 µM (inactive). For the same compound, the GI50 (NCI/ADR-RES) was 20.7 µM (inactive), the GI50 (OVCAR-3) was 12.5 µM (inactive) and the GI50 (OVCAR-4) was 20.7 µM (inactive). For the same compound, the GI50 (OVCAR-5) was 27.9 µM (inactive), the GI50 (OVCAR-8) was 18.5 µM (inactive) and the GI50 (PC-3) was 25.8 µM (inactive). The GI50 (RPMI-8226) was 11.6 µM (inactive), the GI50 (RXF 393) was 13.9 µM (inactive) and the GI50 (SF-268) was 29.9 µM (inactive). For the same compound, the GI50 (SF-295) was 18.7 µM (inactive), the GI50 (SF-539) was 19.2 µM (inactive) and the GI50 (SK-MEL-28) was 18.1 µM (inactive). For the same compound, the GI50 (SK-MEL-2) was 16.2 µM (inactive), the GI50 (SK-MEL-5) was 18.2 µM (inactive) and the GI50 (SK-OV-3) was 41.5 µM (inactive). For the same compound, the GI50 (SN12C) was 22.3 µM (inactive), the GI50 (SNB-19) was 34.3 µM (inactive) and the GI50 (SNB-75) was > 100 µM (inactive). For the same compound, the GI50 (SR) was 14.5 µM (inactive), the GI50 (SW-620) was 18.7 µM (inactive) and the GI50 (T47D) was 32.7 µM (inactive). The GI50 (TK-10) was 31.8 µM (inactive), the GI50 (U-251) was 19.6 µM (inactive) and the GI50 (UACC-257) was 21.6 µM (inactive). For the same compound, the GI50 (UACC-62) was 17.3 µM (inactive) and the GI50 (UO-31) was 18.5 µM (inactive).

With `Cc1ccc(C(=O)CCl)o1` the GI50 (786-0) was 4.28 µM (inactive), the GI50 (A498) was > 10 µM (inactive) and the GI50 (A549) was > 10 µM (inactive). For the same compound, the GI50 (ACHN) was > 10 µM (inactive), the GI50 (BT-549) was 5.3 µM (inactive) and the GI50 (CAKI-1) was 3.12 µM (inactive). For the same compound, the GI50 (CCRF-CEM) was 2.39 µM (inactive), the GI50 (COLO 205) was 3.01 µM (inactive) and the GI50 (DU-145) was > 10 µM (inactive). The GI50 (EKVX) was > 10 µM (inactive), the GI50 (HCC 2998) was > 10 µM (inactive) and the GI50 (HCT-116) was 1.86 µM (inactive). For the same compound, the GI50 (HCT-15) was 4.93 µM, the GI50 (HL-60) was 2.11 µM (inactive) and the GI50 (HOP-62) was > 10 µM (inactive). The GI50 (HOP-92) was > 10 µM (inactive), the GI50 (HT-29) was 4.71 µM (inactive) and the GI50 (Hs-578T) was > 10 µM (inactive). The GI50 (IGROV-1) was > 9.68 µM (inactive), the GI50 (K562) was 3.93 µM (inactive) and the GI50 (KM12) was > 10 µM (inactive). For the same compound, the GI50 (LOX IMVI) was 2.98 µM (inactive), the GI50 (M14) was 3.86 µM (inactive) and the GI50 (MCF7) was 3.52 µM (inactive). The GI50 (MDA-MB-231) was > 7.31 µM (inactive), the GI50 (MDA-MB-435) was 3.25 µM (inactive) and the GI50 (MDA-N) was > 7.08 µM (inactive). The GI50 (MOLT-4) was 2.13 µM (inactive), the GI50 (Malme-3M) was 3.18 µM (inactive) and the GI50 (NCI-H226) was > 10 µM (inactive). For the same compound, the GI50 (NCI-H23) was 5.37 µM (inactive), the GI50 (NCI-H460) was > 10 µM (inactive) and the GI50 (NCI-H522) was 2.92 µM (inactive). The GI50 (NCI/ADR-RES) was > 10 µM (inactive), the GI50 (OVCAR-3) was > 7.23 µM (inactive) and the GI50 (OVCAR-4) was 4.15 µM (inactive). The GI50 (OVCAR-5) was > 5.6 µM (inactive), the GI50 (OVCAR-8) was > 4.5 µM (inactive) and the GI50 (PC-3) was > 10 µM (inactive). For the same compound, the GI50 (RPMI-8226) was 2.33 µM (inactive), the GI50 (RXF 393) was > 9.31 µM (inactive) and the GI50 (SF-268) was > 6.97 µM (inactive). The GI50 (SF-295) was > 10 µM (inactive), the GI50 (SF-539) was 4.15 µM (inactive) and the GI50 (SK-MEL-28) was > 10 µM (inactive). For the same compound, the GI50 (SK-MEL-2) was > 10 µM (inactive), the GI50 (SK-MEL-5) was > 7.96 µM (inactive) and the GI50 (SK-OV-3) was > 10 µM (inactive). For the same compound, the GI50 (SN12C) was 3.69 µM (inactive), the GI50 (SNB-19) was > 10 µM (inactive) and the GI50 (SNB-75) was > 9.46 µM (inactive). For the same compound, the GI50 (SR) was 3.07 µM (inactive), the GI50 (SW-620) was 2.3 µM (inactive) and the GI50 (T47D) was 4.61 µM (inactive). For the same compound, the GI50 (TK-10) was 6.9 µM (inactive), the GI50 (U-251) was > 10 µM (inactive) and the GI50 (UACC-257) was > 9.2 µM (inactive). For the same compound, the GI50 (UACC-62) was > 7.91 µM (inactive) and the GI50 (UO-31) was > 4.67 µM (inactive).

With `S=C1Cc2cc3ccccc3nc2-c2ccccc2N1` the GI50 (786-0) was 12.6 µM (inactive), the GI50 (A498) was 6.31 µM (inactive) and the GI50 (A549) was 26.1 µM (inactive). For the same compound, the GI50 (ACHN) was 24 µM (inactive), the GI50 (BT-549) was > 33.8 µM (inactive) and the GI50 (CAKI-1) was 29.6 µM (inactive). The GI50 (CCRF-CEM) was > 100 µM (inactive), the GI50 (COLO 205) was 54 µM (inactive) and the GI50 (DU-145) was 70.8 µM (inactive). The GI50 (EKVX) was 38 µM (inactive), the GI50 (HCC 2998) was 16.2 µM (inactive) and the GI50 (HCT-116) was 13.6 µM (inactive). For the same compound, the GI50 (HCT-15) was 42.3 µM, the GI50 (HL-60) was > 100 µM (inactive) and the GI50 (HOP-62) was 11.6 µM (inactive). The GI50 (HOP-92) was 8.87 µM (inactive), the GI50 (HT-29) was > 47.2 µM (inactive) and the GI50 (Hs-578T) was 5.64 µM (inactive). For the same compound, the GI50 (IGROV-1) was 29 µM (inactive), the GI50 (K562) was > 100 µM (inactive) and the GI50 (KM12) was 19.3 µM (inactive). For the same compound, the GI50 (LOX IMVI) was 33.4 µM (inactive), the GI50 (M14) was 26.7 µM (inactive) and the GI50 (MCF7) was 38.9 µM (inactive). The GI50 (MDA-MB-231) was 10.4 µM (inactive), the GI50 (MDA-MB-435) was 29.7 µM (inactive) and the GI50 (MDA-N) was 5.13 µM (inactive). The GI50 (MOLT-4) was > 96.8 µM (inactive), the GI50 (Malme-3M) was 27.5 µM (inactive) and the GI50 (NCI-H226) was 16.1 µM (inactive). For the same compound, the GI50 (NCI-H23) was 23.9 µM (inactive), the GI50 (NCI-H460) was 15.1 µM (inactive) and the GI50 (NCI-H522) was 24.9 µM (inactive). The GI50 (NCI/ADR-RES) was 10.1 µM (inactive), the GI50 (OVCAR-3) was 9.57 µM (inactive) and the GI50 (OVCAR-4) was 12.4 µM (inactive). For the same compound, the GI50 (OVCAR-5) was 51.2 µM (inactive), the GI50 (OVCAR-8) was 11.9 µM (inactive) and the GI50 (PC-3) was 36 µM (inactive). For the same compound, the GI50 (RPMI-8226) was > 50.7 µM (inactive), the GI50 (RXF 393) was 8.65 µM (inactive) and the GI50 (SF-268) was 7.01 µM (inactive). For the same compound, the GI50 (SF-295) was 22.7 µM (inactive), the GI50 (SF-539) was 12.6 µM (inactive) and the GI50 (SK-MEL-28) was 27.5 µM (inactive). For the same compound, the GI50 (SK-MEL-2) was 36.7 µM (inactive), the GI50 (SK-MEL-5) was 44.8 µM (inactive) and the GI50 (SK-OV-3) was 5.68 µM (inactive). For the same compound, the GI50 (SN12C) was 16.7 µM (inactive), the GI50 (SNB-19) was > 29.3 µM (inactive) and the GI50 (SNB-75) was 7.24 µM (inactive). For the same compound, the GI50 (SR) was 29 µM (inactive), the GI50 (SW-620) was 37 µM (inactive) and the GI50 (T47D) was 8.3 µM (inactive). The GI50 (TK-10) was 24.3 µM (inactive), the GI50 (U-251) was 13.7 µM (inactive) and the GI50 (UACC-257) was 29.1 µM (inactive). For the same compound, the GI50 (UACC-62) was 8.45 µM (inactive) and the GI50 (UO-31) was 9.06 µM (inactive).
